Test results: US20230123334A1, “AMINO LIPID COMPOUND, PREPARATION METHOD THEREFOR, AND APPLICATION THEREOF” (SHENZHEN SHENXIN BIOTECHNOLOGY CO., LTD., priority 2020, published 2023)

Legend:
HEK293 cells [1] = test: Preliminary screening as mRNA vectors, EGFP mRNA transfection of HEK293 cells; format: cell-based; conditions: EGFP mRNA 50 ng per well, 96-well plates; percentage of GFP fluorescent cells relative to total number of cells (Hoechst)
Description: Cell line: HEK293 cells (ATCC CRL-1573™)
Medium: DMEM supplemented with 10% fetal bovine serum (Invitrogen)
Screening: cell transfection on 96-well plates
Detection (readout): percentage of the number of GFP fluorescent cells relative to the total number of cells (the total number of cells was determined using nucleus dye Hoechst). Lipofectamine2000 (Invitrogen) was used as the positive control.
Method: the experimental method was basically the same with Example 4, and the mass of EGFP mRNA (TriLink) for transfection was 50 ng per well.

HEK293 cells [2] = test: Preliminary screening as DNA vectors, GFP transfection of HEK293 cells; format: cell-based
Outline: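 Lipid + DOPE liposomes (NaOAc, pH 5.6) complexed w/ 75 ng psin-EGFP-IRES-Puro, 30 min RT; added to 3-5×10^4 HEK293/well, 37° C. Hoechst 0.2 μg/mL at 20-24 h, imaged after further 20-24 h. Efficiency = GFP+ cells / total nuclei.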

[3] = amino lipid/DOPE liposome with 75 ng plasmid DNA (psin-EGFP-IRES-Puro), number of GFP-expressing cells divided by total nuclei (Hoechst)

SMILES	Absolute mRNA transfection efficiency in HEK293 cells (HEK293 cells [1])	Absolute DNA transfection efficiency in HEK293 cells (HEK293 cells [2]; [3])	also measured
CCCCCCCCCCCCCCCCNc1nc(NCCN(C)C)nc(SCCCCCCCCCCCC)n1 [Compound D1S12N16]	0.0%		
CCCCCCCCCCCCCCCSc1nc(NCCCCCCCC)nc(NCCN2CCCCC2)n1 [Compound D4S15N8]	1.6%		
CCCCCCCCCCCCCCCSc1nc(NCCCN2CCOCC2)nc(SCCCCCC)n1 [Compound D8S6S15]	2.8%		
CCCCCCCCCCCCN(CCCCCCCCCCCC)c1nc(NCC2CCN(C)CC2)nc(SCCCCCCCCC)n1 [D10S9^2N12]	7.7%		
CCCCCCCSc1nc(NCCCCCC)nc(NCCCN2CCN(C)CC2)n1 [Compound D9S7N6]	0.8%		
CCCCCCCCCCCCCNc1nc(NCCN2CCOCC2)nc(SCCCCCCCCC)n1 [Compound D2S9N13]	12.3%		
CCCCCCCCCCCCCNc1nc(NCC2CCN(C)CC2)nc(SCCCCCCCC)n1 [Compound D10S8N13]	75.0%		
CCCCCCCCCCCCCCSc1nc(NCCCN2CCOCC2)nc(N(CCCCCCCCCCCC)CCCCCCCCCCCC)n1 [D8S14^2N12]	0.1%		
CCCCCCCCCCCCCCCCNc1nc(NCCN(C)C)nc(SCCCCCCCCCC)n1 [Compound D1S10N16]	40.7%		
CCCCCCCCCCCCCCCSc1nc(NCCN2CCN(C)CC2)nc(SCCCCCCC)n1 [Compound D5S7S15]	58.7%		
CCCCCCCCCCCNc1nc(NCCCN(C)C)nc(SCCCCCCCCCC)n1 [Compound D6S10N11]	10.0%		
CCCCCCCCCCCCCCCCSc1nc(NCCN(C)C)nc(SCCCCCC)n1 [Compound D1S6S16]	0.9%		
CCCCCCCCCCCCNc1nc(NCCCN2CCN(C)CC2)nc(SCCCCCC)n1 [Compound D9S6N12]	4.9%		
CCCCCCCCCSc1nc(NCCN(CC)CC)nc(SCCCCCC)n1 [Compound D7S6S9]	4.2%		
CCCCCCCCCCCCCCCCSc1nc(NCCCCCCCCCCCCCCC)nc(NCCCN2CCN(C)CC2)n1 [Compound D9S16N15]	0.2%		
CCCCCCCCCCCCCCCCSc1nc(NCCCCCCCC)nc(NCCN2CCCC2)n1 [Compound D3S16N8]	97.7%		
CCCCCCCCCCCCCCCCCCSc1nc(NCCCCCCC)nc(NCCN2CCOCC2)n1 [Compound D2S18N7]	1.0%		
CCCCCCCCCCCCCNc1nc(NCCCN2CCN(C)CC2)nc(SCCCCCC)n1 [Compound D9S6N13]	6.6%		
CCCCCCCCSc1nc(NCCN2CCCC2)nc(SCCCCCCC)n1 [Compound D3S7S8]	2.7%		
CCCCCCCSc1nc(NCCN2CCN(C)CC2)nc(SCCCCCCC)n1 [Compound D5S7S7]	10.5%		
CCCCCCCCCCCCN(CCCCCCCCCCCC)c1nc(NCCCN(C)C)nc(SCCCCCCCCCC)n1 [D6S10^2N12]	0.1%		
CCCCCCCCCCCCSc1nc(NCCCCCC)nc(NCCCN2CCN(C)CC2)n1 [Compound D9S12N6]	0.2%		

SMILES	Absolute mRNA transfection efficiency in HEK293 cells (HEK293 cells [1])	Absolute DNA transfection efficiency in HEK293 cells (HEK293 cells [2]; [3])	also measured
CCCCCCCCCCCCCCCNc1nc(NCCN2CCCCC2)nc(SCCCCCCCCCC)n1 [Compound D4S10N15]	1.5%		
CCCCCCCCCCCCCCCCCCNc1nc(NCCN2CCCCC2)nc(SCCCCCCCCCCCCCC)n1 [Compound D4S14N18]	2.2%		
CCCCCCCCCCCCCCCCNc1nc(NCCCN2CCN(C)CC2)nc(SCCCCCCCCCCC)n1 [Compound D9S11N16]	3.9%		
CCCCCCCCCCCCNc1nc(NCCCN2CCN(C)CC2)nc(SCCCCCCCCC)n1 [Compound D9S9N12]	36.0%		
CCCCCCCCCCCCCCCCSc1nc(NCCCCCCCC)nc(NCCCN2CCN(C)CC2)n1 [Compound D9S16N8]	71.3%		
CCCCCCCCCCCSc1nc(NCCN2CCN(C)CC2)nc(SCCCCCCC)n1 [S7S11 D5]		32.4%	
CCCCCCCCCCCCCCCCSc1nc(NCCCCCCCCC)nc(NCCCN(C)C)n1 [S16N9 D6]		11.7%	
CCCCCCCCCNc1nc(NCCCN2CCN(C)CC2)nc(SCCCCCCCCC)n1 [S9N9 D9]		50.7%	
CCCCCCCCCCCCSc1nc(NCCCCCCCCCCC)nc(NCCCN(C)C)n1 [S12N11 D6]		14.9%	
CCCCCCCCCNc1nc(NCCN2CCN(C)CC2)nc(SCCCCCCC)n1 [S7N9 D5]		22.0%	
CCCCCCCCCCCCCCCCCCSc1nc(NCCCCCCCCCCCCC)nc(NCCCN(C)C)n1 [S18N13 D6]		2.6%	
CCCCCCCCCCCCCCCCNc1nc(NCCCN(C)C)nc(SCCCCCCCCCC)n1 [S10N16 D6]		13.6%	
CCCCCCCCCCSc1nc(NCCN2CCCC2)nc(SCCCCCCC)n1 [S7S10 D3]		19.4%	
CCCCCCCCCCSc1nc(NCCN(CC)CC)nc(SCCCCCCC)n1 [S7S10 D7]		20.2%	
CCCCCCCCCCCCN(CCCCCCCCCCCC)c1nc(NCCCCCCCCCCC)nc(NCCN2CCOCC2)n1 [Compound N112N12D2]			Absolute DNA transfection efficiency in HEK293 cells (HEK293 cells [2]; HEK293 cells, lipid/DOPE liposome with 75 ng plasmid DNA (psin-EGFP-IRES-Puro), number of cells expressing GFP divided by total number of nuclei (Hoechst)): 0.0%
CCCCCCCCCCCCCCCSc1nc(NCCN2CCOCC2)nc(N(CCCCCCCCCCCC)CCCCCCCCCCCC)n1 [S15^2N12 D2]		0.0%	
CCCCCCCCCCCSc1nc(NCCCCCCC)nc(NCCCN2CCN(C)CC2)n1 [S11N7 D9]		16.1%	
CCCCCCCCCCCCCCCCSc1nc(NCCCCCCCCC)nc(NCCN(CC)CC)n1 [S16N9 D7]		5.3%	
CCCCCCCCCCCCCCCCCCSc1nc(NCCCCCCCCCCCCCCCC)nc(NCCN2CCOCC2)n1 [S18N16 D2]		0.0%	
CCCCCCCCCCCSc1nc(NCCCCCCC)nc(NCCN2CCN(C)CC2)n1 [S11N7 D5]		22.8%	
CCCCCCCCCCCCCCCNc1nc(NCCN(CC)CC)nc(SCCCCCCCCCCCCCCC)n1 [S15N15 D7]		0.4%	
CCCCCCCCCCCCCCCCCCNc1nc(NCCCN2CCOCC2)nc(SCCCCCCCCC)n1 [S9N18 D8]		26.1%	

SMILES	Absolute mRNA transfection efficiency in HEK293 cells (HEK293 cells [1])	Absolute DNA transfection efficiency in HEK293 cells (HEK293 cells [2]; [3])	also measured
CCCCCCCCCCCCNc1nc(NCCN2CCN(C)CC2)nc(SCCCCCCCCC)n1 [S9N12 D5]		48.2%	
CCCCCCCCCCCCCCSc1nc(NCC2CCN(C)CC2)nc(SCCCCCC)n1 [S6S14 D10]		53.3%	
CCCCCCCCCCCCCCCCNc1nc(NCCCN(C)C)nc(SCCCCCCC)n1 [S7N16 D6]		26.2%	
CCCCCCCCCCCCCCCCCCNc1nc(NCCN2CCCCC2)nc(SCCCCCCCCCCCCCCCCCC)n1 [S18N18 D4]		0.0%	
CCCCCCCCCCCCSc1nc(NCCN2CCCCC2)nc(SCCCCCC)n1 [S6S12 D4]		3.0%	
CCCCCCCCCCSc1nc(NCCCN2CCN(C)CC2)nc(SCCCCCCCC)n1 [S8S10 D9]		25.6%	
CCCCCCCCCCCCCCCCCCNc1nc(NCCN2CCCC2)nc(SCCCCCCCCCC)n1 [S10N18 D3]		11.9%	
CCCCCCCCCCCCNc1nc(NCCN2CCN(C)CC2)nc(SCCCCCCCC)n1 [S8N12 D5]		41.7%	
CCCCCCCCCCCCCCSc1nc(NCCCCCCCCCCC)nc(NCCN(C)C)n1 [S14N11 D1]		11.8%	
CCCCCCCCCCCCCCCCCCNc1nc(NCCN2CCCCC2)nc(SCCCCCCCC)n1 [S8N18 D4]		0.9%	
CCCCCCCCCCCCCCCCSc1nc(NCCCN(C)C)nc(N(CCCCCCCCCCCC)CCCCCCCCCCCC)n1 [S16^2N12 D6]		0.0%	
CCCCCCCCNc1nc(NCCN2CCOCC2)nc(SCCCCCC)n1 [S6N8 D2]		0.3%	
CCCCCCCCCCCCCCCNc1nc(NCCN2CCN(C)CC2)nc(SCCCCCCCC)n1 [S8N15 D5]		10.4%	
CCCCCCCCCCCCCCCNc1nc(NCCCN(C)C)nc(SCCCCCCCCCCCCCC)n1 [S14N15 D6]		0.8%	
CCCCCCCCCCCCSc1nc(NCCN2CCOCC2)nc(SCCCCCCC)n1 [S7S12 D2]		18.0%	
CCCCCCCCCCCCCCCCSc1nc(NCCCCCCCC)nc(NCCCN2CCN(C)CC2)n1 [S16N8 D9]		10.9%	
CCCCCCCCCCCCCCCCSc1nc(NCCCCCCCCCCCCC)nc(NCCN2CCOCC2)n1 [S16N13 D2]		0.0%	
CCCCCCCCCCCCCCCCCCNc1nc(NCCCN2CCN(C)CC2)nc(SCCCCCCCCCCCCCCCCCC)n1 [S18N18 D9]		0.0%	
CCCCCCCCCCCCCCCCNc1nc(NCCN(CC)CC)nc(SCCCCCCC)n1 [S7N16 D7]		6.4%	
CCCCCCCCCSc1nc(NCCCN2CCOCC2)nc(SCCCCCC)n1 [S6S9 D8]		2.0%	
